Measured values as given in US5585367A (priority 1990, dated 1996).
≈ marks a conversion by molar mass, not a printed value. Read-outs that look alike come from different tables or passages of the source.

Tests used:
[1] = test system: wild HIV-1 strains; test: Inhibition of HIV replication, wild HIV-1 strains; format: cell-based; conditions: for IC90: Human immunodeficiency virus 1, wild strains from patients
[2] = test system: HIV-1 LAI/IIIB; test: Inhibition of HIV replication in MT4 cells; format: cell-based
[3] = Single oral doses to healthy volunteers, tolerability and safety; format: in vivo, human
Method: Pharmaceutical grade ADA in gelatin capsules, each containing 500 mg, was administered as single oral doses to healthy volunteers to determine its tolerability and safety. […] These changes were reversible within 4-6 hours from intake.

[4] = oral
[5] = test system: HIV-2 ROD; test: Inhibition of HIV replication in MT4 cells; format: cell-based; conditions: 0.4 μgr/ml to 250.0 μgr/ml
[6] = test system: CD4 lymphocyte; test: Treatment of one patient with stage IV AIDS
[7] = test system: pepsin; test: Inhibition of pepsin; format: biochemical
[8] = test system: Tat; test: Tat antagonism
[9] = test system: HIV-1 Wild B; test: Inhibition of HIV replication in PBL's; format: cell-based; conditions: Human immunodeficiency virus 1
[10] = test system: HIV-1; format: cell-based
[11] = test system: HIV-1 Wild D; test: Inhibition of HIV replication in PBL's; format: cell-based; conditions: Human immunodeficiency virus 1
[12] = test system: genes "GAG", "LTR" and "ENV" of the HIV-1 provirus; test: Integration of viral genome into chromosomic DNA of Supt-1 cells (PCR); format: cell-based; conditions: 35 μgr/ml; virus incubated for 15 minutes
Method: By means of a genetic amplification through a thermostable polymerase, the presence of genes "GAG", "LTR" and "ENV" of the HIV-1 provirus is evidenced. This method is called P.C.R. Polymerase chain Reaction) (Chin-Yih Ou et al., Sciences 239, 295-297, 1988).
Said method is applied for detecting HIV-1 provirus in the genome of Supt-1 cells inoculated with HIV-1 virus incubated with […] (dilution 1/100), as described in Example 8
Amplified oligonucleotides, UV visible by means of ethidium bromide appear only in the tubes corresponding to an inoculation with HIV-1 viruses which were not treated with the active substance.
One proceeds as in Example 11(c). The search of genes "GAG", "LTR" and "ENV" has been made in cellular cultures inoculated with a virus incubated for 15 minutes with the active substance. This search is appeared as being negative, and thus it can be concluded that 1.1'-azobisformamide at the dosage of 35 μgr/ml protects the cells against infection by HIV-1.
Examples 10c and 11c disclose a more accurate method than the ELISA test for examining whether the inoculated cells contain HIV-1 at the end of the assay, i.e., the PCR-Method.

[13] = test system: HIV; test: Inhibition of HIV replication, summary over strains and cells; format: cell-based, HIV-1 and HIV-2; conditions: Human immunodeficiency virus 1, p24, 7 to 8 days after infection
[14] = B. L. OSER et al. (1965); cited from earlier work
[15] = molecular target: T1, HIV-1 reverse transcriptase (RT) (Human immunodeficiency virus type 1 BH10, UniProt P03366); test: Acellular in-vitro inhibition of reverse transcriptase (polyrC-oligodG template-primer-complex); format: biochemical
T1 construct: mature RT from Gag-Pol polyprotein (pr160Gag-Pol)
Method: ADA in a liquid medium was tested in an acellular in-vitro system for any inhibitory effect on HIV-1 reverse transcriptase (RT) using the polyrC-oligodG template-primer-complex. […] From concentrations of 60 μgr/ml upward, there is a 50% inhibition of RT. […] Therefore, ADA inhibits HIV replication with an as yet unknown but original mode of action.

[16] = test system: HIV-1 LAI/IIIB; test: Inhibition of HIV replication in PBL's; format: cell-based; conditions: PBLs; 0.4 μgr/ml to 250.0 μgr/ml
[17] = single oral doses, one volunteer

NC(=O)N=NC(N)=O [ADA, 1,1'-azobisformamide]
IC90 ([1]; read-out: IC90 range): 17.4 to 21.2 µg/mL (≈ 150 to 183 µM) | IC90 ([1]; read-out: median IC90 (complete inhibition, ≥90% inhibition)): 18 µg/mL (≈ 155 µM) | inhibition of the replication of wild HIV-1 strains ([1]; PBLs, including strains phenotypically resistant to AZT, 0.4 to 250.0 μgr/ml): inhibit the replication | IC50 ([2]; Human immunodeficiency virus 1, IIIB, MT4, MT4 cells infected with HIV-1 strain LAI/IIIB, read-out: lowest observed IC50): 1.6 µg/mL (≈ 13.8 µM) | inhibition of the replication of HIV-1 ([2]; MT4 cells, 0.4 μgr/ml to 250.0 μgr/ml): inhibits the replication | adverse effects on hematological and chemical parameters in blood and urine ([3]; 40 mg/kg or 60 mg/kg): No adverse effects were observed | adverse effects on blood pressure, pulse, or respiratory rate ([3]; any of the tested dosages): No adverse effects were observed | glutathione in peripheral blood ([3]; from doses of 40 mg/kg): slightly depressed | methemoglobin reduces [reductase] in peripheral blood ([3]; from doses of 40 mg/kg): slightly depressed | reversibility of the changes, time from intake ([3]; from doses of 40 mg/kg): 4 to 6 h | tolerability ([3]; single oral dosages of up to 60 mg per kg body weight): well tolerated | methemoglobin [3, 17]: dose-related increase in methemoglobin | return of methemoglobin to normal [3, 17]: within half an hour | time of methemoglobin Cmax after intake [3, 17]: 1 to 1.5 h | absorption [4]: absorbed via the gastro-intestinal route | distribution [4]: distributes readily to intracellular compartments | inhibition of the replication of HIV-2 (ROD) [5]: inhibits the replication | absolute CD4 lymphocyte count ([6]; 500 mg three times a day, 26-week period, from 77): 144 cells/mm^3 | diarrhea ([6]; 12 weeks after restarting ADA): free of diarrhea | weight ([6]; 12 weeks after restarting ADA): gained considerable weight | weight and diarrhea after withdrawal of ADA ([6]; RT medication without ADA): lost weight and developed intractable diarrhea | CD4 lymphocyte count after withdrawal of ADA ([6]; RT medication without ADA, within two months): returned to baseline | CD4 lymphocyte count ([6]; fifteen weeks after restarting ADA): 190 cells/mm^3 | adverse effects that could be drug-related ([6]; occasional increases up to 2 grams three times a day): No adverse effects | CD4 lymphocyte count ([6]; restart at 1 gram three times a day, within two weeks): 144 cells/mm^3 | inhibition of pepsin [7]: does not inhibit pepsin | Tat antagonism [8]: not a Tat-antagonist | IC50 [9]: 11.6 µg/mL (≈ 99.9 µM) | IC90 [9]: 18.6 µg/mL (≈ 160 µM) | protection of cellular cultures against the infectious power of HIV-1 [10]: protects the cellular cultures against the infectious power of HIV-1 | IC50 [11]: 10 µg/mL (≈ 86.1 µM) | IC90 [11]: 18.1 µg/mL (≈ 156 µM) | search of genes "GAG", "LTR" and "ENV" [12]: negative | IC50 ([13]; read-out: IC50 range): 1.6 to 14.8 µg/mL (≈ 13.8 to 127 µM) | IC50 ([13]; read-out: median IC50): 8 µg/mL (≈ 68.9 µM) | toxicity for the humans [14]: absence of toxicity | RT inhibition ([15]; at concentrations up to the IC90): not an RT-inhibitor | inhibition of RT ([15]; from concentrations of 60 μgr/ml upward): 50% | flu-like syndrome (140 mg/kg, from 6 hours after intake, lasted several hours): flu-like syndrome was observed | adverse effects such as changes in hemodynamic parameters or subjective well-being (lower doses (35 and 70 mg/kg)): No adverse effects | inhibition of the replication of HIV-1 (strain IIIB(LAI)) [16]: inhibit the replication
